The target in the experiment is T1, recombinant IRAK-4 kinase (Homo sapiens, UniProt Q9NWZ3).
T1 construct: purchased Millipore, USA
T1 sequence (Q9NWZ3 1-460): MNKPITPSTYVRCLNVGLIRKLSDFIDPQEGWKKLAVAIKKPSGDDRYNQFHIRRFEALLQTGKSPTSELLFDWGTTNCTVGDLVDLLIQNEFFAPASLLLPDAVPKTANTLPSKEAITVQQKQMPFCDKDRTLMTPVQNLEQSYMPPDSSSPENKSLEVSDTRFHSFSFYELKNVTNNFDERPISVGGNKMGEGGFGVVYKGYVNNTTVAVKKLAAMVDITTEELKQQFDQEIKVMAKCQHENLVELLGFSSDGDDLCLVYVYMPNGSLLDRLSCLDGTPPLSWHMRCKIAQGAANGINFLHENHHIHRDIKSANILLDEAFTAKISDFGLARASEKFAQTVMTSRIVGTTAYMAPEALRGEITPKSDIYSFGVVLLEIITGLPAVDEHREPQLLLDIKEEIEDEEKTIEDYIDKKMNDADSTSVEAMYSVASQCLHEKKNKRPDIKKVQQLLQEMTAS
Nature of the experiment: IRAK-4 Biochemical Assay (TR-FRET, percent inhibition). The note with it: TR-FRET, 20 μM ATP, 100 nM Biotin Histone H3; for inhibition at 0.1 µM: read-out: % inhibition of IRAK-4 @0.1 μM, compound at 0.1 μM; for inhibition at 1 µM: read-out: % inhibition of IRAK-4 @ 1 μM, compound at 1 μM. How it is done:
Compounds were tested for their potential to inhibit IRAK-4 enzyme in a TR-FRET assay using recombinant IRAK-4 kinase from Millipore, USA. The assay buffer was 50 mM Tris-HCl pH 7.5, 20 mM MgCl2, 1 mM EGTA, 2 mM DTT, 3 mM MnCl2 and 0.01% Tween 20.5 ng of IRAK-4 kinase was used for the assay. After pre-incubation of enzyme with test compound for 30 minutes at room temperature, a substrate mixture containing 100 nM Biotin Histone H3 (Millipore, USA) and 20 μM ATP (Sigma, USA) was added and the reaction was incubated for 30 min. Post incubation, the reaction was stopped by the addition of stop mix containing 40 mM EDTA, 1 nM of Europium-Anti-Phospho-Histone H3 (Ser10) antibody (Perkin Elmer, USA) and 20 nM SureLight Allophycocyanin-Streptavidin (Perkin Elmer, USA). The fluorescence emission at 615 nm and 665 nm were measured at an excitation of 340 nm and the percent inhibition was estimated from the ratio of the fluorescence intensities [(F665/F615)×10000].

The values that follow come from patent publication US20180208605A1, “Substituted Aza Compounds as IRAK-4 Inhibitors” (AURIGENE DISCOVERY TECHNOLOGIES LIMITED, priority 2015, published 2018).

Where a name gives a salt, the structure may show the parent alone.

What is called inhibition is the drop in the measured response relative to a control, in per cent. Consider `Cc1cc(-c2ccc(C(=O)Nc3cc4sc(N5CCOCC5)nc4nc3N3CCC(O)(CO)CC3)o2)ccn1` [Example 2, N-(5-(4-hydroxy-4-(hydroxymethyl)piperidin-1-yl)-2-morpholinothiazolo[4,5-b]pyridin-6-yl)-5-(2-methylpyridin-4-yl)furan-2-carboxamide hydrochloride], for which the inhibition at 0.1 µM is 98% and the inhibition at 1 µM was determined as 99%.
As to `Cn1cc(-c2nc(C(=O)Nc3cc4sc(N5CCOCC5)nc4nc3N3CCCCC3)co2)ccc1=O` [Example 3, 2-(1-methyl-6-oxo-1,6-dihydropyridin-3-yl)-N-(2-morpholino-5-(piperidin-1-yl)thiazolo[4,5-b]pyridin-6-yl)oxazole-4-carboxamide], the inhibition at 0.1 µM came to 97% and the inhibition at 1 µM was determined as 98%.
On the same counts, the results for `Cc1cc(-c2ncc(C(=O)Nc3cc4sc(N5CCOCC5)nc4nc3N3CCC(O)(CO)CC3)o2)ccn1` [Example 4, N-(5-(4-hydroxy-4-(hydroxymethyl)piperidin-1-yl)-2-morpholinothiazolo[4,5-b]pyridin-6-yl)-2-(2-methylpyridin-4-yl)oxazole-5-carboxamide hydrochloride] are 99% and 99%.
For the compound `Cc1cc(-c2ccc(C(=O)Nc3cc4sc(N5CCOCC5)nc4nc3N3CCCC(O)(CO)C3)o2)ccn1` (stereo not drawn) [Example 5, N-(5-(3-hydroxy-3-(hydroxymethyl)piperidin-1-yl)-2-morpholinothiazolo[4,5-b]pyridin-6-yl)-5-(2-methylpyridin-4-yl)furan-2-carboxamide hydrochloride], the inhibition at 0.1 µM amounted to 98% and the inhibition at 1 µM was 99%.
Turning to `Cc1cc(-c2nc(C(=O)Nc3cc4sc(N5CCOCC5)nc4nc3OC3CCC(N4CCOCC4)CC3)co2)ccn1` (stereo not drawn) [Example 6, 2-(2-methylpyridin-4-yl)-N-(2-morpholino-5-(((1r,4r)-4-morpholinocyclohexyl)oxy)thiazolo[4,5-b]pyridin-6-yl)oxazole-4-carboxamide hydrochloride], the inhibition at 0.1 µM stood at 100% and the inhibition at 1 µM is 100%.
In the case of `Cc1cc(-c2nc(C(=O)Nc3cc4sc(N5CCNCC5)nc4nc3N3CCCCC3)co2)ccn1` [Example 7, 2-(2-methylpyridin-4-yl)-N-(2-(piperazin-1-yl)-5-(piperidin-1-yl)thiazolo[4,5-b]pyridin-6-yl)oxazole-4-carboxamide hydrochloride], the inhibition at 0.1 µM was found to be 99% and the inhibition at 1 µM was determined as 99%.
Regarding `O=C(Nc1cc2sc(N3CCOCC3)nc2nc1N1CCC(O)(CO)CC1)c1cccc(N2CC[C@H](O)C2)n1` [Example 8, (S)-N-(5-(4-hydroxy-4-(hydroxymethyl)piperidin-1-yl)-2-morpholinothiazolo[4,5-b]pyridin-6-yl)-6-(3-hydroxypyrrolidin-1-yl)picolinamide hydrochloride], the inhibition at 0.1 µM is 97% and the inhibition at 1 µM was 98%.
On the same counts, the results for `Cc1cc(-c2nc(C(=O)Nc3cc4sc(N5CCOCC5)nc4nc3N3CCC(O)(CO)C3)co2)ccn1` (stereo not drawn) [Example 9, N-(5-(3-hydroxy-3-(hydroxymethyl)pyrrolidin-1-yl)-2-morpholinothiazolo[4,5-b]pyridin-6-yl)-2-(2-methylpyridin-4-yl)oxazole-4-carboxamide hydrochloride] are 101% and 99%.
As for `Cc1cc(-c2nc(C(=O)Nc3cc4sc(N5CCN(C(=O)CO)CC5)nc4nc3N3CCCCC3)co2)ccn1` [Example 10, N-(2-(4-(2-hydroxyacetyl)piperazin-1-yl)-5-(piperidin-1-yl)thiazolo[4,5-b]pyridin-6-yl)-2-(2-methylpyridin-4-yl)oxazole-4-carboxamide hydrochloride], the inhibition at 0.1 µM was determined as 100% and the inhibition at 1 µM stood at 100%.
For the compound `Nc1cccc(-c2nc(C(=O)Nc3cc4sc(N5CCOCC5)nc4nc3N3CCCCC3)co2)n1` [Example 11, 2-(6-aminopyridin-2-yl)-N-(2-morpholino-5-(piperidin-1-yl)thiazolo[4,5-b]pyridin-6-yl)oxazole-4-carboxamide hydrochloride], the inhibition at 0.1 µM was 99% and the inhibition at 1 µM stood at 98%.
As to `Nc1cc(-c2nc(C(=O)Nc3cc4sc(N5CCOCC5)nc4nc3N3CCCCC3)co2)c(Cl)cn1` [Example 12, 2-(2-amino-5-chloropyridin-4-yl)-N-(2-morpholino-5-(piperidin-1-yl)thiazolo[4,5-b]pyridin-6-yl)oxazole-4-carboxamide], the inhibition at 0.1 µM was determined as 98% and the inhibition at 1 µM turned out to be 98%.
With `Cn1cc(-c2nc(C(=O)Nc3cc4sc(N5CCOCC5)nc4nc3N3CCCCC3)co2)cc(F)c1=O` [Example 13, 2-(5-fluoro-1-methyl-6-oxo-1,6-dihydropyridin-3-yl)-N-(2-morpholino-5-(piperidin-1-yl)thiazolo[4,5-b]pyridin-6-yl)oxazole-4-carboxamide], the inhibition at 0.1 µM is 98% and the inhibition at 1 µM was 98%.
With `Cc1ccc(-c2nc3nc(N4CCOCC4)oc3cc2NC(=O)c2coc(-c3ccnc(C)c3)n2)nc1` [Example 14, N-(5-(5-methylpyridin-2-yl)-2-morpholinooxazolo[4,5-b]pyridin-6-yl)-2-(2-methylpyridin-4-yl)oxazole-4-carboxamide], the inhibition at 0.1 µM was 99% and the inhibition at 1 µM was 100%.
On the same counts, the results for `Cc1cc(-c2nc(C(=O)Nc3cc4oc(N5CCOCC5)nc4nc3N3CCCC(O)(CO)C3)co2)ccn1` (stereo not drawn) [Example 15, N-(5-(3-hydroxy-3-(hydroxymethyl)piperidin-1-yl)-2-morpholinooxazolo[4,5-b]pyridin-6-yl)-2-(2-methylpyridin-4-yl)oxazole-4-carboxamide hydrochloride] are 96% and 100%.
For `Cc1cc(-c2nc(C(=O)Nc3cc4oc(N5CCOCC5)nc4nc3OC3CCC(N4CCOCC4)CC3)co2)ccn1` (stereo not drawn) [Example 16, 2-(2-methylpyridin-4-yl)-N-(2-morpholino-5-(((1r,4r)-4-morpholinocyclohexyl)oxy)oxazolo[4,5-b]pyridin-6-yl)oxazole-4-carboxamide hydrochloride], the inhibition at 0.1 µM was 94% and the inhibition at 1 µM was 99%.
In the case of `O=C(Nc1cc2sc(N3CCOCC3)nc2nc1N1CCCCC1)c1cnn2cccnc12` [Example 19, N-(2-morpholino-5-(piperidin-1-yl)thiazolo[4,5-b]pyridin-6-yl)pyrazolo[1,5-a]pyrimidine-3-carboxamide], the “% inhibition of IRAK-4 @0.1 μM” value (compound at 0.1 μM) was determined as 98%. Where the note is “compound at 1 μM”, the “% inhibition of IRAK-4 @ 1 μM” value is 99%.
For the compound `Cc1ccc(-c2nc3nc(N4CCOCC4)sc3cc2NC(=O)c2cnn3cccnc23)nc1` [Example 20, N-(5-(5-methylpyridin-2-yl)-2-morpholinothiazolo[4,5-b]pyridin-6-yl)pyrazolo[1,5-a]pyrimidine-3-carboxamide], the inhibition at 0.1 µM worked out at 97% and the inhibition at 1 µM worked out at 98%.
On the same counts, the results for `NC1CCCN(c2ccn3ncc(C(=O)Nc4cc5sc(N6CCOCC6)nc5nc4C4CC4)c3n2)C1` (stereo not drawn) [Example 21, 5-(3-aminopiperidin-1-yl)-N-(5-cyclopropyl-2-morpholinothiazolo[4,5-b]pyridin-6-yl)pyrazolo[1,5-a]pyrimidine-3-carboxamide] are 97% and 98%.
On to `NCCNc1ccn2ncc(C(=O)Nc3cc4sc(N5CCOCC5)nc4nc3C3CC3)c2n1` [Example 22, 5-((2-aminoethyl)amino)-N-(5-cyclopropyl-2-morpholinothiazolo[4,5-b]pyridin-6-yl)pyrazolo[1,5-a]pyrimidine-3-carboxamide], for which the inhibition at 0.1 µM was 97% and the inhibition at 1 µM came to 98%.
In the case of `NC1CCN(c2ccn3ncc(C(=O)Nc4cc5sc(N6CCOCC6)nc5nc4C4CC4)c3n2)C1` (stereo not drawn) [Example 23, 5-(3-aminopyrrolidin-1-yl)-N-(5-cyclopropyl-2-morpholinothiazolo[4,5-b]pyridin-6-yl)pyrazolo[1,5-a]pyrimidine-3-carboxamide hydrochloride], the inhibition at 0.1 µM stood at 86% and the inhibition at 1 µM came to 97%.
`O=C(Nc1cc2oc(N3CCOCC3)nc2nc1N1CCCCC1)c1cnn2cccnc12` [Example 24, N-(2-morpholino-5-(piperidin-1-yl)oxazolo[4,5-b]pyridin-6-yl)pyrazolo[1,5-a]pyrimidine-3-carboxamide]: the inhibition at 0.1 µM came out at 97% and the inhibition at 1 µM came out at 97%.
